Experimental data published in article PMC10233710 (ChemMedChem, 2023).

Columns and labels:
HCT-116 cells = assay: MTT cytotoxicity assay, HCT-116; assay type: cell-based, human; conditions: Homo sapiens, HCT-116, 72 h, read-out: GI50 ± SD (μM) HCT-116
[1] = test system: MCF-7/TDP1 cells (overexpressing TDP1); assay: Drug combination with TPT; assay type: cell-based, human; conditions: co-incubated with TPT for 96 h
recombinant human TDP1 = recombinant human TDP1 (Homo sapiens, UniProt Q9NUW8); assay: TDP1 gel-based inhibition assay; assay type: biochemical
Sequence of recombinant human TDP1 (Q9NUW8 whole entry): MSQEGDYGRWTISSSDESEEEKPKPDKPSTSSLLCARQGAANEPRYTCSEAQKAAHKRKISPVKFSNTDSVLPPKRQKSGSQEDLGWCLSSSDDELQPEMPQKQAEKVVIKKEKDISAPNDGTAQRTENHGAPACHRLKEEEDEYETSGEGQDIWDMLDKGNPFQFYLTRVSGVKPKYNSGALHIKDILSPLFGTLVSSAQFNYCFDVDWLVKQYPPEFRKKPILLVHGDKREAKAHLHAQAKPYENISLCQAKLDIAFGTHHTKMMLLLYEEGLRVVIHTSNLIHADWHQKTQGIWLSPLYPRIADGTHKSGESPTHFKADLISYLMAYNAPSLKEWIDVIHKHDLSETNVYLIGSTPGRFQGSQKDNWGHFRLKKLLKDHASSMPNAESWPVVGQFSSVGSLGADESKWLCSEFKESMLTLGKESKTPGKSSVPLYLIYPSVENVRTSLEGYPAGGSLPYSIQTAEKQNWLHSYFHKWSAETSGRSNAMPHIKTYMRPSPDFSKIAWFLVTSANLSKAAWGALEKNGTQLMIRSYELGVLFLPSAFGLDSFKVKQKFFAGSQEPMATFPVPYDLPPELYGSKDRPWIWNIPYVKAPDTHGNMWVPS

MCF-7 cells [2] = assay: Drug combination with TPT; assay type: cell-based, human; conditions: co-incubated with TPT for 96 h, 43 at 1 μM
recombinant TOP1 = target: T1, recombinant TOP1 (Homo sapiens, UniProt P11387); assay: TOP1-mediated DNA cleavage assay; assay type: biochemical; conditions: semiquantitative relative to CPT at 1 μM
T1 sequence (P11387 1-765): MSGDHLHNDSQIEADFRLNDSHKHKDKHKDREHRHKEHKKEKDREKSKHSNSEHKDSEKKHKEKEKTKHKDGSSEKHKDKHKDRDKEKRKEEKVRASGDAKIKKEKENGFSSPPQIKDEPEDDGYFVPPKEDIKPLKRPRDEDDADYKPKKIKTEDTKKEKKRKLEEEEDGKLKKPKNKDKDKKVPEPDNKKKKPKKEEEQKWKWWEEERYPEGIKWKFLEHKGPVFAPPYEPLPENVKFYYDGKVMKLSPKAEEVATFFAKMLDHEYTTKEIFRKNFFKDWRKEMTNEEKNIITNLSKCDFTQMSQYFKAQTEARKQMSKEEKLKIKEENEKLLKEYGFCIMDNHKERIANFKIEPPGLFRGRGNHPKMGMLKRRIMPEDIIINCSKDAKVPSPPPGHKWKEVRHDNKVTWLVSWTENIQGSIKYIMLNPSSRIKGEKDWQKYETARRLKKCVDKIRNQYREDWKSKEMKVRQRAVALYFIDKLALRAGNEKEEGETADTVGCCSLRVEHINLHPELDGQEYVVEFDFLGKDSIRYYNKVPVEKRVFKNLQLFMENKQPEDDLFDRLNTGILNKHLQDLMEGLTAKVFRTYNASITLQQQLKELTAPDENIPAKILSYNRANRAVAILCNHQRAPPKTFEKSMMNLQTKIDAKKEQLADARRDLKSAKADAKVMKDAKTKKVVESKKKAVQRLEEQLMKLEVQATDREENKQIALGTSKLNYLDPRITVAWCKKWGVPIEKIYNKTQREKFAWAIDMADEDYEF

MCF-7 cells [3] = assay: MTT cytotoxicity assay, MCF-7; assay type: cell-based, human; conditions: Homo sapiens, MCF7, 72 h, read-out: GI50 ± SD (μM) MCF-7
[4] = target: T2, cellular TOP1ccs in MCF-7 cells (Homo sapiens, UniProt P11387); assay: ICE assay for cellular TOP1cc; conditions: 1 h, 38 at 25, 50, 100 μM, TPT at 25 and 50 μM
T2 sequence (P11387 2-765 limits assumed): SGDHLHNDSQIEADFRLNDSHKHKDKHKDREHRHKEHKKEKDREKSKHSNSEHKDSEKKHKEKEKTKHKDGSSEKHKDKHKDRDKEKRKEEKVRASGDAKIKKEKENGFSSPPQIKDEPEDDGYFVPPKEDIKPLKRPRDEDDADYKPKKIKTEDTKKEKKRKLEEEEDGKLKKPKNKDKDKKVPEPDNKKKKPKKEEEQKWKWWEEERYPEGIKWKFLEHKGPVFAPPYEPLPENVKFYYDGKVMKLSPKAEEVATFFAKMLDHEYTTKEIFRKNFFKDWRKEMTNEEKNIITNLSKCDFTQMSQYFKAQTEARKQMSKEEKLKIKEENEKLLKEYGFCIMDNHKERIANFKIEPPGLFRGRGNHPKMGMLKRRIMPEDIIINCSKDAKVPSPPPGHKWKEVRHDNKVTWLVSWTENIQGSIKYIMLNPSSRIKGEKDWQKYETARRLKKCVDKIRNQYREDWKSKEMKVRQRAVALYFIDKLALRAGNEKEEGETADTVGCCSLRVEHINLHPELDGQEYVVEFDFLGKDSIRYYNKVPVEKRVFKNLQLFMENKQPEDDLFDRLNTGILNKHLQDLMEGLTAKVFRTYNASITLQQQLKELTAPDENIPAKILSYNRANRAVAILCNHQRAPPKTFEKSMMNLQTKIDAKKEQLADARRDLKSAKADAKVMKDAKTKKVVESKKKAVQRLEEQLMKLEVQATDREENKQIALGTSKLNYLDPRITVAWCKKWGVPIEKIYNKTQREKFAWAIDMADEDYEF

[5] = target: cellular TDP1ccs in MCF-7 cells (Homo sapiens, UniProt Q9NUW8); conditions: 1 h
Sequence of cellular TDP1ccs in MCF-7 cells (Q9NUW8 whole entry): as the sequence (Q9NUW8 whole entry) above

MCF-7 cells [6] = assay: Flow cytometry apoptosis assay; assay type: cell-based, human; conditions: 4 µM, 24 h
[7] = test system: γH2AX foci in MCF-7 cells; assay: γH2AX immunofluorescence assay; assay type: cell-based, human; conditions: 5 h
[8] = TOP1 cleavage inhibitory activity, Table 2

Compound	GI50 (HCT-116 cells) [µM]	combination index (CI) with TPT [1]	IC50 (recombinant human TDP1) [µM]	combination index (CI) with TPT (MCF-7 cells [2])	TOP1 Inhibition (recombinant TOP1; [8])	TOP1 Inhibition (recombinant TOP1)	GI50 (MCF-7 cells [3]) [µM]	cellular TOP1cc trapping [4]	quantity of cellular TDP1cc ([5]; co-treated with TPT (10 μM) and 43 (10 and 100 μM))	cellular TDP1ccs ([5]; compound alone at 100 μM)	late apoptosis, % cells (MCF-7 cells [6]) [%]	γH2AX foci, fold compared with TPT treated alone ([7]; co-treatment with TPT and 43 at 1 μM)	γH2AX foci, fold compared with TPT treated alone ([7]; co-treatment with TPT and 43 at 2 μM) [fold]	DNA damage (γH2AX foci) relative to that of TPT ([7]; compound alone at 1 μM)	γH2AX foci formation ([7]; alone)
COc1cc2c(=O)n(C)c3c4cc5c(cc4cc(OCCCN(C)C)c3c2cc1OC)OCO5 [Compound 35, 5-(3-(Dimethylamino)propoxy)-2,3-dimethoxy-12-methyl-[1,3]dioxolo[4’,5’:4,5]benzo[1,2-c]phenanthridin-13(12H)-one]	0.55 ± 0.17	0.003–0.51	18 ± 6.9	0.02–0.69	0	no TOP1 inhibition	1.2 ± 0.1								
COc1cc2c(=O)n(C)c3c4cc5c(cc4cc(OCCN4CCCC4)c3c2cc1OC)OCO5 [Compound 38, 2,3-Dimethoxy-12-methyl-5-(2-(pyrrolidin-1-yl)ethoxy)-[1,3]dioxolo[4’,5’:4,5]benzo[1,2-c]phenanthridin-13(12H)-one]	0.25 ± 0.02		37 to 111		+++ (+++, between 75% and 95% activity)		6.4 ± 1	trapped cellular TOP1ccs in MCF-7 cells in a dose-dependent manner							
COc1cc2c(=O)n(C)c3c4cc5c(cc4cc(OCCCN4CCOCC4)c3c2cc1OC)OCO5 [Compound 41, 2,3-Dimethoxy-12-methyl-5-(3-morpholinopropoxy)-[1,3]dioxolo[4’,5’:4,5]benzo[1,2-c]phenanthridin-13(12H)-one]	3.3 ± 0.73		> 111		+ (+, between 20% and 50% activity)		7.9 ± 1								
COc1cc2c(=O)n(C)c3c4cc5c(cc4cc(OCCCO)c3c2cc1OC)OCO5 [Compound 42, 5-(3-Hydroxypropoxy)-2,3-dimethoxy-12-methyl-[1,3]dioxolo[4’,5’:4,5]benzo[1,2-c]phenanthridin-13(12H)-one]	38 ± 2.31		> 111		+ (+, between 20% and 50% activity)		51 ± 1.6								
COc1cc2c(=O)n(C)c3c4cc5c(cc4cc(OCCCNCCO)c3c2cc1OC)OCO5 [Compound 43, 5-(3-((2-Hydroxyethyl)amino)propoxy)-2,3-dimethoxy-12-methyl-[1,3]dioxolo[4’,5’:4,5]benzo [1,2-c]phenanthridin-13(12H)-one]	0.29 ± 0.19	0.003–0.51	10 ± 3.8	0.18–0.77	+ (+, between 20% and 50% activity)		2.2 ± 1.2		significantly enhanced	significantly enhanced	~28.58	about 1.9 fold	~2.4	about one fifth	
COc1cc2c(=O)n(C)c3c4cc5c(cc4cc(OCCCn4ccnc4)c3c2cc1OC)OCO5 [Compound 44, 5-(3-(1H-imidazol-1-yl)propoxy)-2,3-dimethoxy-12-methyl-[1,3]dioxolo[4’,5’:4,5]benzo[1,2-c]phenanthridin-13(12H)-one]	10 ± 1.2		> 111		0/+ (0/+, less than 20%)		7 ± 0.55								
COc1cc2c(=O)n(C)c3c4cc5c(cc4cc(OCCCN4CCN(c6cccc(C(F)(F)F)c6)CC4)c3c2cc1OC)OCO5 [Compound 45, 2,3-Dimethoxy-12-methyl-5-(3-(4-(3-(trifluoromethyl)phenyl)piperazin-1-yl)propoxy)-[1,3]dioxolo[4’,5’:4,5]benzo[1,2-c]phenanthridin-13(12H)-one]	> 100		> 111		0		85 ± 3.8								
CC[C@@]1(O)C(=O)OCc2c1cc1n(c2=O)Cc2cc3c(CN(C)C)c(O)ccc3nc2-1 [TPT, Topotecan, reference compound]								trapped cellular TOP1ccs							could obviously induce γH2AX foci formation
